Laboratory results taken from ChEMBL document CHEMBL1201862, “PubChem BioAssay data set” (2004).
The source made the active and inactive calls.

Assays:
[1] = inhibitors of firefly luciferase expression or activity, dose response, H4 neuroglioma cells, luminescence (AID 1990); assay type: functional, cell-based
[2] = luciferase reporter signal reduction – luminescence, H4-C neuroglioblastoma cells, dose response (AID 2458); assay type: functional, cell-based;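 also: H4 neuroglioblastoma cells stably carrying a luciferase reporter gene fusion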
cells = assay type: functional, cell-based
[3] = Luminescence Cell-Based Dose Response HTS to Identify Inhibitors of 5'UTR Stem-Loop Driven Prion Protein mRNA Translation in H4 Neuroglioblastoma Cells. [Related pubchem assays: 1827 (Project Summary), 1813 (Primary HTS)]; assay type: functional
[4] = inhibitors of SNCA 5'UTR-driven reporter translation, confirmation, H4 neuroglioma cells, luminescence (AID 1988); assay type: functional, cell-based
[5] = Luminescence-based dose response cell-based high throughput screening assay for cytotoxic compounds using the IEC-6 intestinal epithelial cell line. [Related pubchem assays: 1858 (Summary AID.), 1825 (Counterscreen.), 1907 (Confirmation screen.)]; assay type: functional
[6] = inhibitors of SNCA 5'UTR-driven translation, confirmation, luminescence, H4 neuroglioblastoma cells, dose confirmation (AID 2454); assay type: functional, cell-based;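 also: H4 neuroglioblastoma cells carrying an alpha-synuclein 5'UTR luciferase reporter; potency for inhibition of the luciferase signal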
Vero = assay: cells; assay type: functional, cell-based; details: Chlorocebus sabaeus
[7] = PAX2 cell-based inhibition, dose response, selectivity assay for PAX8 inhibitor project, plate reader, dry powder samples (AID 743048); assay type: functional;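 also: HEK293 cells carrying a WT1 promoter luciferase reporter driven by expressed Pax2; potency is for inhibition of Pax2 driven reporter signal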
[8] = PAX5 activity inhibitors, dose response, selectivity assay for PAX8 inhibitor project, cell-based, plate reader, dry powder samples (AID 743047); assay type: functional;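 also: HEK293 cells carrying a Pax5 driven CD19 promoter luciferase reporter; potency of inhibitors that lower reporter luminescence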
[9] = cytotoxicity in COV434 cells, dose response, cytotoxicity control for PAX8 inhibitor project, cell-based, plate reader, dry powder, SA7 (AID 743145); assay type: functional
[10] = cytotoxicity in OV-90 ovarian cancer cells, dose response, PAX8 inhibitor project, cell-based, plate reader, dry powder, SA8 (AID 743149); assay type: functional
[11] = cytotoxicity dependent on PAX8, dose response, cell-based, plate reader, dry powder (AID 743049); assay type: functional
NADPH oxidase 1 = NADPH oxidase 1 (Homo sapiens, UniProt Q9Y5S8); assay: Late-stage luminescence-based cell-based dose response assay to identify inhibitors of NADPH oxidase 1 (NOX1): Synthesized analogs 2.; assay type: functional
Chain of NADPH oxidase 1 (Q9Y5S8 whole entry): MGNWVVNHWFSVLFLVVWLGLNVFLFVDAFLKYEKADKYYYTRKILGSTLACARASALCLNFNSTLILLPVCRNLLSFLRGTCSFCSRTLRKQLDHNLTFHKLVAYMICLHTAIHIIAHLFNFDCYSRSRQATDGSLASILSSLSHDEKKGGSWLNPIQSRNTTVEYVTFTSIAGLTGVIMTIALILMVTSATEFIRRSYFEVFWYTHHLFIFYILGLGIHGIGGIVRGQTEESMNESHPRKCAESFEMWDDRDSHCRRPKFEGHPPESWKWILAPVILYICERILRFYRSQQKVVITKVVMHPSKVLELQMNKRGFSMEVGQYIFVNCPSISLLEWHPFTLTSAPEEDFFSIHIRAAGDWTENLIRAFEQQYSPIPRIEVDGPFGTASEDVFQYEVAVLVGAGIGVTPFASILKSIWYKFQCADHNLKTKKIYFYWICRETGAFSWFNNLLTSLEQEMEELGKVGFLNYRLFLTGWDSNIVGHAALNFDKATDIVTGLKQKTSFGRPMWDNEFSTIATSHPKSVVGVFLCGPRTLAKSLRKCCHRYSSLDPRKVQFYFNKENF

[12] = TRPM1 promoter luciferase reporter signal decrease, dose response, MITF inhibitor project, cell-based, SK-MEL-5, dry powder, set 9 (AID 651588); assay type: functional
[13] = MITF Orthogonal Assay: MALME3 CTG Assay Measured in Cell-Based System Using Plate Reader - 2084-04_Inhibitor_Dose_DryPowder_Activity_Set6.; assay type: functional; details: MALME-3
[14] = SK-MEL-5 parental cell viability reduction, dose response, orthogonal assay for MITF inhibitor project, CellTiter-Glo luminescence, dry powder, set 8 (AID 651586); assay type: functional, cell-based
[15] = MALME3 melanoma cell viability reduction, dose response, orthogonal assay for MITF inhibitor project, CellTiter-Glo luminescence, dry powder, set 5 (AID 651584); assay type: functional, cell-based; details: MALME-3
[16] = MITF Orthogonal Assay: SK-MEL-5 CTG Assay Measured in Cell-Based System Using Plate Reader - 2084-02_Inhibitor_Dose_DryPowder_Activity_Set7.; assay type: functional
[17] = MITF: Counter assay: A375 proliferation Measured in Cell-Based System Using Plate Reader - 2084-03_Inhibitor_Dose_DryPowder_Activity_Set8.; assay type: functional; details: A-375
[18] = A375 melanoma cell viability loss, dose response, counter-screen for MITF modulator project, CellTiter-Glo luminescence, dry powder, set 9 (AID 651591); assay type: functional, cell-based; details: A-375
[19] = TRPM1 promoter luciferase reporter signal decrease, dose response, MITF inhibitor project, cell-based, SK-MEL-5, dry powder, set 8 (AID 624430); assay type: functional
[20] = target: Heat shock protein HSP 90-alpha (Homo sapiens, UniProt P07900); assay: Luminescence-based dose response biochemical high throughput screening assay for inhibitors of the Heat Shock Protein 90 (HSP90). [Related pubchem assays: 1831 (Summary AID.), 1846 (Confirmation screen.), 1789 (Primary screen.)]
[21] = target: T1, Luciferin 4-monooxygenase (Photuris pensylvanica, UniProt Q27757); assay: firefly luciferase enzyme inhibitors, dose response, counter-screen for HSF-1 reporter inhibitor project, biochemical, Cell Titer Glo, luminescence, cherry-picks (AID 588847)
T1 sequence (Q27757 whole entry): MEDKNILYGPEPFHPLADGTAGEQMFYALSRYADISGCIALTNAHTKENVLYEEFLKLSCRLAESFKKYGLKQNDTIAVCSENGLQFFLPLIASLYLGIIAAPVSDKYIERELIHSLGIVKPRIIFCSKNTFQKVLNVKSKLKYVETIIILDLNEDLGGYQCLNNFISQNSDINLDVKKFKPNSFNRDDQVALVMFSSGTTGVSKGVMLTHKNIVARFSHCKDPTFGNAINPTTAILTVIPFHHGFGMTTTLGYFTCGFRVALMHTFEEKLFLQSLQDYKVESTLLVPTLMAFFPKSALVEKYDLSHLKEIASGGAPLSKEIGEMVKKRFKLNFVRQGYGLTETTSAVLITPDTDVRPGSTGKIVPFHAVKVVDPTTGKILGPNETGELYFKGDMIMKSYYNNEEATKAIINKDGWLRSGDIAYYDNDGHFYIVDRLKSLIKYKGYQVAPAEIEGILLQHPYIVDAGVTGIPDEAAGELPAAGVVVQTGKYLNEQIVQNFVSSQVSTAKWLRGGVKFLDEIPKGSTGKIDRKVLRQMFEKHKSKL

[22] = NIH-3T3 fibroblast cytotoxicity, dose response, cytotoxicity control, cell-based, fluorescence, Alamar Blue, secondary assay (AID 2327); assay type: functional;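 also: NIH-3T3 mouse fibroblasts cultured with fluconazole at 8 µg/mL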
[23] = C. albicans growth with fluconazole, confirmation, fluorescence, retest (AID 2467); assay type: functional, cell-based
[24] = target: T2, Mannose-6-phosphate isomerase (Homo sapiens, UniProt P34949); assay: inhibitors of human PMI, primary screen, biochemical, fluorescence intensity, coupled assay (AID 1209)
T2 sequence (P34949 whole entry): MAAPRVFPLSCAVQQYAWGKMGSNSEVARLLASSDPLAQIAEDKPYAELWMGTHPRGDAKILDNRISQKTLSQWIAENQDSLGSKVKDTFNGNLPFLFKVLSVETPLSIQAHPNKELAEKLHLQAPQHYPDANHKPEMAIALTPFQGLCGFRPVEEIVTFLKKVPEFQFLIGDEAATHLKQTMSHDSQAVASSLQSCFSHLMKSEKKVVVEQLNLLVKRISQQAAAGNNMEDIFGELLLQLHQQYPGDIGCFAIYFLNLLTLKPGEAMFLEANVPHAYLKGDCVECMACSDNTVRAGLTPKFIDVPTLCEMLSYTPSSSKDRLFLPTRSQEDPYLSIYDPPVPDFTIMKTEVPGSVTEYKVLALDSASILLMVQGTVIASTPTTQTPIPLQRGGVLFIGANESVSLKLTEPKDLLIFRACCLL

[25] = target: Induced myeloid leukemia cell differentiation protein Mcl-1 (Homo sapiens, UniProt Q07820); assay type: functional
Chain of Induced myeloid leukemia cell differentiation protein Mcl-1 (Q07820 whole entry): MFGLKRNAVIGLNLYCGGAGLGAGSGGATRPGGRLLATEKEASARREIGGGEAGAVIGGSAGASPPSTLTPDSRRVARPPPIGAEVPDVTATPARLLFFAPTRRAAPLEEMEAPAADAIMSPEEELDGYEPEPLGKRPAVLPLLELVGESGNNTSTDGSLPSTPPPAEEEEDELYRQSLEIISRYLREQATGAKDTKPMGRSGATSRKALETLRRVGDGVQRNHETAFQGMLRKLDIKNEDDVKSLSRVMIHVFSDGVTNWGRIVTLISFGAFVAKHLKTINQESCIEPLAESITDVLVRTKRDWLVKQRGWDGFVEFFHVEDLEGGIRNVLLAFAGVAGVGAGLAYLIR

[26] = target: T2, Mannose-6-phosphate isomerase; assay: human PMI inhibitors, high substrate, primary screen, biochemical, fluorescence intensity, high mannose 6-phosphate (AID 1220)
[27] = target: Eukaryotic translation initiation factor 4E (Mus musculus, UniProt P63073); assay: eIF4E–eIF4G protein interaction inhibitors, dose response, biochemical, TR-FRET (AID 855); assay type: functional;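 also: potency for disrupting eIF4E binding to eIF4GI seen as loss of FRET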
Chain of Eukaryotic translation initiation factor 4E (P63073 whole entry): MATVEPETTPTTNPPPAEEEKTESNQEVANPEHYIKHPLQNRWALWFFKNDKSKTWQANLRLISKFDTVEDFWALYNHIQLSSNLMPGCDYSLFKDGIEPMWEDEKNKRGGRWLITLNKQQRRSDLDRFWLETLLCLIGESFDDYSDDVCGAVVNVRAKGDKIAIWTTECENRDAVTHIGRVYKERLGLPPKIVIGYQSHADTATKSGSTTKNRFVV

Nonstructural protein 1 = Nonstructural protein 1 (Influenza A virus, UniProt Q194T2); assay type: functional, Influenza A virus (A/California/07/2009(H1N1))
Chain of Nonstructural protein 1 (Q194T2 whole entry): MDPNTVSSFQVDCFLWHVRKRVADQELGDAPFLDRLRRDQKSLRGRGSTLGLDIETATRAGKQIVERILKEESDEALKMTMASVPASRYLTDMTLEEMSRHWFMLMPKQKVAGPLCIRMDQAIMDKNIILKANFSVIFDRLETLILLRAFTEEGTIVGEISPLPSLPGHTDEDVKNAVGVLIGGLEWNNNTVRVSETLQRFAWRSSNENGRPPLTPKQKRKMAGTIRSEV

Genome polyprotein = Genome polyprotein (dengue virus type 2, UniProt P29990); assay: Dengue-2 NS5 methyltransferase inhibitors, primary screen, biochemical, confirmation dose response (AID 588689); assay type: functional
Chain of Genome polyprotein (P29990 2492-3391 limits assumed): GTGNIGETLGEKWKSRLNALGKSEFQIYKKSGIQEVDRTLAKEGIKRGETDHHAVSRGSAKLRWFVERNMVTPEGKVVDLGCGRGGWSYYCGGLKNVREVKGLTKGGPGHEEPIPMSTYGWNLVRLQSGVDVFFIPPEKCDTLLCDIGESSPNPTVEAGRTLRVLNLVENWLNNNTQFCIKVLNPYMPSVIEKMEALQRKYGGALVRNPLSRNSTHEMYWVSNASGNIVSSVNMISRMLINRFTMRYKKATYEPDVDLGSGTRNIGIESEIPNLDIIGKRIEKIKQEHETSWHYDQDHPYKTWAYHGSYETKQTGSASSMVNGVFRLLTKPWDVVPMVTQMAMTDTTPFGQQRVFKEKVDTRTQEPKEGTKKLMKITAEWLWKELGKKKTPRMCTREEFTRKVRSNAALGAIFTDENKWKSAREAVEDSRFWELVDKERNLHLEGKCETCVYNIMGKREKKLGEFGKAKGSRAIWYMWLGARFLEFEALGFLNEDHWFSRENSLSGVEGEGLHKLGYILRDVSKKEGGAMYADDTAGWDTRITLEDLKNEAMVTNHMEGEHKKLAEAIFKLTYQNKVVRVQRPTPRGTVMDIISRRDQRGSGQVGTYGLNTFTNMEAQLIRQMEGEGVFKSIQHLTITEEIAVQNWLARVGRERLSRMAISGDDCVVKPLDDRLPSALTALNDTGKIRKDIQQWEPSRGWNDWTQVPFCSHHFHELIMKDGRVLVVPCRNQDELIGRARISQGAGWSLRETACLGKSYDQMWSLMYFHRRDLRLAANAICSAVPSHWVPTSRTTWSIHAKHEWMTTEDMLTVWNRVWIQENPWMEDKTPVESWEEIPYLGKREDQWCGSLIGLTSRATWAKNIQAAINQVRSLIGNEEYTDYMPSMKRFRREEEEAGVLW

[28] = target: Glutathione-S-transferase (Schistosoma japonicum, UniProt Q26513); assay: biotin-GST/anti-GST TR-FRET signal inhibitors, dose response, artefact control for Vif-APOBEC3G degradation inhibitor project, biochemical (AID 1117362); assay type: functional
Chain of Glutathione-S-transferase (Q26513 whole entry): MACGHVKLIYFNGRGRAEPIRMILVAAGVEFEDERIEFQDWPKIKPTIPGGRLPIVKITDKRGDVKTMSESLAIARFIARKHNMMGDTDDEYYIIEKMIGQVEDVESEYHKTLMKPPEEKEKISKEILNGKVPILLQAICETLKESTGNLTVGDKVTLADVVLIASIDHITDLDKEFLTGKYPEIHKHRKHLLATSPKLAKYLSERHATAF

[29] = THP-1 cell cytotoxicity, dose response, cytotoxicity control for Vif-APOBEC3G degradation inhibitor project, THP-1 cells (AID 1117359); assay type: functional; details: Human immunodeficiency virus 1, THP-1
HEK293 [30] = assay: cells; details: Homo sapiens
HEK293 [31] = assay: cells; details: Homo sapiens; remark: listed apart in the source

In the case of `CN(C)c1ccc(C(=O)c2ccc(N(C)C)c3ccccc23)cc1`, the EC50 [1] is reported as < 0.1 µM (active), the EC50 [2] is reported as 0.103 µM (active) and the EC50 (cells) is reported as 0.112 µM (active). For the same compound, the EC50 [3] was < 0.1 µM (active), the EC50 [4] was < 0.1 µM (active) and the IC50 [5] was 0.146 µM (active). The EC50 [6] was 0.118 µM (active) and the IC50 (Vero) was > 25 µM (active).
For `COc1cccc(C#Cc2ccc([C@@H]3[C@@H](C#N)N(C(=O)C4CCCCC4)[C@@H]3CO)cc2)c1`, the AC50 [7] was 19.9 µM (active), the AC50 [8] was 30.5 µM (active) and the AC50 [9] was 69.6 µM (active). For the same compound, the AC50 [10] was 57.3 µM (active) and the AC50 [11] was 25.8 µM (active).
With `CN1c2ccccc2Sc2cc(NC(=O)c3ccc(N=[N+]=[N-])cc3)ccc21` the IC50 (NADPH oxidase 1) was 17.7 µM (active).
In the case of `CN1CCN(C2=C(Nc3ccc(F)cc3F)C(=O)c3ccccc3C2=O)CC1`, the AC50 [12] is reported as 17.5 µM (active), the AC50 [13] is reported as 25.4 µM (active) and the AC50 [14] is reported as > 70 µM (inactive). The AC50 [15] was 25.4 µM (active), the AC50 [16] was 9.87 µM (active) and the AC50 [17] was > 70 µM (inactive). The AC50 [18] was > 70 µM (inactive) and the AC50 [19] was 5.36 µM (active).
For `Cc1c(-c2nc(-c3ccc(C(C)(C)C)cc3)no2)n(C)oc1=O`, the IC50 [20] was > 0.003 µM (active) and the AC50 [21] was > 52 µM (inactive).
For `CCn1c(C)nc2cc(C(=O)N/N=C/c3ccc(O)c(O)c3O)ccc21`, the EC50 [22] was 104 µM (active), the EC50 [23] was 1.6 µM (active) and the IC50 [24] was 7.02 µM (active). For the same compound, the IC50 [25] was > 54 µM (active), the IC50 [26] was 8.47 µM (active) and the IC50 [27] was 27.5 µM (active). For the same compound, the IC50 (Nonstructural protein 1) was 16.6 µM (active), the IC50 (Genome polyprotein) was 21.7 µM (active) and the IC50 [28] was 45 µM (active).
With `O=C(N/N=C/C(Br)=C/c1ccccc1)c1cc(-c2ccco2)[nH]n1` the CC50 [29] was 33.1 µM (active), the EC50 (HEK293 [30]) was > 59.6 µM (inactive) and the EC50 (HEK293 [31]) was > 59.6 µM (inactive).
